Experimental findings from patent US11548901B2, “Substituted 1,4-methanopyrido[1′,2′:4,5]pyrazino[1,2-a]pyrimidines for treating viral infections” (Gilead Sciences, Inc., priority 2012, dated 2023) are described below.

The term EC50 denotes the concentration needed to bring the measured effect to its halfway point.

Molecules are shown by their SMILES.

The test system of this assay is HIV-IIIb. As to the kind of experiment: Antiviral assay in MT4 cells. The assay is classed as cell-based. The conditions noted are these: Human immunodeficiency virus 1, IIIB, MT4, 120 h, read-out: EC50 nM in MT-4. The protocol:
For the antiviral assay utilizing MT4 cells, 0.4 μL of […] test concentration of 3-fold serially diluted compound in DMSO was added to 40 μL of cell growth medium (RPMI 1640, 10% FBS, 1% penicilline/Streptomycine, 1% L-Glutamine, 1% HEPES) in each well of 384-well assay plates (10 concentrations) in quidruplicate.
1 mL aliquots of 2×10^6 MT4 cells are pre-infected for 1 and 3 hours respectively at 37° C. with 25 μL (MT4) or of either cell growth medium (mock-infected) or a fresh 1:250 dilution of an HIV-IIIb concentrated ABI stock (0.004 m.o.i. for MT4 cells). Infected and uninfected cells are diluted in cell growth medium and 35 μL of 2000 (for MT4) cells is added to each well of the assay plates.
Assay plates were then incubated in a 37° C. incubator. […] Cell lysis was carried out by incubating at room temperature for 2-3 minutes, and then chemiluminescence was read using the Envision reader (PerkinElmer).

For the compound `CC1CC2CC1OC1Cn3cc(C(=O)NCc4ccc(F)cc4F)c(=O)c(O)c3C(=O)N21` (single isomer, unassigned) [Compound 40], the concentration giving a half-maximal response (EC50) came out at 2.4 nM.
